How the values were obtained:
[1] = target: Protein kinase C beta type (Homo sapiens, UniProt P05771); test: Inhibition of recombinant full-length N-temrinal GST-tagged human PKC beta1 expressed in baculovirus infected Sf9 cells using TMB as substrate incubated for 4.5 hrs by colorimetric analysis
[2] = target: T1, Protein kinase C beta type (Rattus norvegicus, UniProt P68403); test: Inhibition of PKCbeta in rat RBL2H3 cells assessed as inhibition of ionomycin-stimulated beta-hexosaminidase release preincubated for 15 mins followed by ionomycin stimulation and measured after 3 hrs by 4-nitropheny1-2-acetamide-2-deoxy-beta-glucopyranoside substrate based colorimetric method; type: cell-based, RBL-2H3
[3] = target: T1, Protein kinase C beta type; test: Inhibition of PKCbeta in rat RBL2H3 cells assessed as inhibition of ionomycin-stimulated TNFalpha release preincubated for 15 mins followed by ionomycin stimulation and measured after 3 hrs by ELISA; type: cell-based, RBL-2H3
[4] = target: T1, Protein kinase C beta type; test: Inhibition of PKCbeta in rat RBL2H3 cells assessed as inhibition of anti-DNP IgE-stimulated TNFalpha release preincubated for 15 mins followed by mouse anti-DNP IgE stimulation and measured after 3 hrs by ELISA; type: cell-based, RBL-2H3

T1 sequence (P68403 whole entry): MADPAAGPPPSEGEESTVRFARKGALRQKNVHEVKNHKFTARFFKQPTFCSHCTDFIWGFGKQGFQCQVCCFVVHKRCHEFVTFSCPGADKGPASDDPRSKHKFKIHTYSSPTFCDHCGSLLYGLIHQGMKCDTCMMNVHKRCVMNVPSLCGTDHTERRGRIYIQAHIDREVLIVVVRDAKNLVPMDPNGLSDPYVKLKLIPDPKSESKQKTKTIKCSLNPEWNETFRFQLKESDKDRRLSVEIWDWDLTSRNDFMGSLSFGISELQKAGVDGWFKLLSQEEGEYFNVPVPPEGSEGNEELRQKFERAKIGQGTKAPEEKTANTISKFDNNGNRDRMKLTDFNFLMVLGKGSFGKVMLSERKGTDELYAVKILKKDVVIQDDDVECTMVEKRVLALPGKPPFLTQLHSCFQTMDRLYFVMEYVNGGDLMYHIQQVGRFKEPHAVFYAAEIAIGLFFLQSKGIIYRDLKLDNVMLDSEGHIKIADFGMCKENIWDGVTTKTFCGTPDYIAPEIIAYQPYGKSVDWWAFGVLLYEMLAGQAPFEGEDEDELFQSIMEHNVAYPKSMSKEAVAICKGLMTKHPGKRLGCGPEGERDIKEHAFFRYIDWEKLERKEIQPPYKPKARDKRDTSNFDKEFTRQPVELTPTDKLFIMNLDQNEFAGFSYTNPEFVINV

IC50 [1]: 36.2 µM
inhibition [1]: Dose-dependent effect
IC50 [2]: 22.2 µM
IC50 [3]: 20.1 µM
IC50 [4]: 16.8 µM
SMILES: O=C1O/C(=C(/C(=O)O)c2ccc(O)c(O)c2)C(O)=C1c1ccc(O)c(O)c1

— ChEMBL document CHEMBL4610028, “Variegatic acid from the edible mushroom Tylopilus ballouii inhibits TNF-α production and PKCβ1 activity in leukemia cells” (Bioorg Med Chem Lett, 2020)
